Test system: RS cells [RS 세포]
Experiment: MTT assay of UV (UVC) irradiation-induced cell damage in cultured human RS cells pretreated with the substance
Type: cell-based
Details: UV 14 J/m2; for resistance to UV-induced cell damage compared with cells cultured without addition (in words): EPH 1/10 or 1/100 (v/v), 1 day, 3 days after irradiation (Fig. 2)

OCCOc1ccccc1 [페녹시에탄올]
resistance to UV-induced cell damage compared with cells cultured without addition (in words) (listed as EPH): 높은 저항성을 나타내었다
resistance to UV-induced cell damage compared with cells cultured without addition (in words) (listed as 하이솔브 EPH): 높은 저항성을 나타낸다
resistance to cell damage by UV irradiation, compared with no addition (phenoxyethanol added at 1/10 - 1/100 (v/v), 1 day pretreatment, MTT 3 days after irradiation): ≥ 2 fold

Source: KR20110126596A, “자외선 방지제” (고쿠리츠 다이가쿠 호우징 지바 다이가쿠, priority 2008, dated 2010)
